Results published in US20090275503A1, “DIASTEREOMERIC PEPTIDES FOR MODULATING T CELL IMMUNITY” (Yeda Research and Developent Co., Ltd. at the Weizman …, priority 2005, published 2009).
Non-standard residues stand in square brackets, D forms with d. No end group written: not given here.

Experiments:
LNC from Mt primed rats = assay: T-cell proliferation of LNC from Mt-immunized rats activated with PPD or Mt176-90 (Part A); type: cell-based, rat
Lewis rats = assay: Adjuvant arthritis (AA) in Lewis rats (Part A); type: in vivo, rat
Experimental: To test the effect of CP on T-cell activation in vivo, the experimental T-cell mediated autoimmune disease adjuvant arthritis (AA) was used. AA was induced by injecting 50 μl of Mt suspended in IFA (10 mg/ml) at the base of the tail. At the time of AA induction, each rat also received 100 μg of all-L CP, 2D-CP or 2G CP control peptide (or PBS) dissolved in 50 μl of IFA and mixed with Mt/IFA used to induce AA. The day of AA induction was designated as day 0. Disease severity was assessed by direct observation of all 4 limbs in each animal. A relative score between 0 and 4 was assigned to each limb, based on the degree of joint inflammation, redness and deformity; thus the maximum possible score for an individual animal was 16 (Quintana et al., 2002). The mean AA score (±SEM) is shown for each experimental group. Arthritis was also quantified by measuring hind limb diameter with a caliper. Measurements were taken on the day of the induction of AA and 26 days later (at the peak of AA); the results are presented as the mean±SEM of the difference between the two values for all the animals in each group. The person who scored the disease was blinded to the identity of the groups.
Next, the contribution of the secondary structure and the side-chains to the inhibitory effects of CP on T cell activation In vivo was analyzed, using the experimental autoimmune disease Adjuvant Arthritis (AA). Immunization of Lewis rats with Mt triggers AA, an autoimmune disease driven by Mt-specific T cells that cross-react with self-antigen (Holoshitz et al., 1984; Holoshitz et al., 1983). PPD and Mt176-90 are targeted by the arthritogenic T-cell response (Anderton et al., 1994); indeed immunomodulatory therapies that inhibit the progression of arthritis have been associated with a decreased T cell response to PPD and Mt176-90 and with a diminished delayed type hypersensitivity (DTH) response to PPD (van Eden et al., 1985).

rat TCR = assay: Co-immunoprecipitation of fluorescence-labeled peptides with TCR molecules; type: binding; conditions: Rho-labeled peptides, activated A2b T cells
Experimental: Activated A2b T cells (2×10^6) were cultured for 1 hr at 37° C. in the presence of CP or 2D-CP (25 μg/ml), or 2G-CP, and lysed for 15 min on ice in 0.1 ml lysis buffer (Adachi et al., 1996). Insoluble material was removed by centrifugation at 10.000 g for 10 min at 4° C. The lysate was then incubated overnight with Protein A-plus Agarose beads (Santa Cruz Biotechnology Inc., Santa Cruz, Calif., USA) bound to antibodies to the rat TCR or MHC class 1. The antibodies reactive against the rat TCR (clone R73) or HSP60 (clone LKI) were purified from the respective hybridomas at our lab; antibodies to rat CD28, actin and the rat MHC class 1 were purchased from Serotec (Oxford, UK). After an overnight incubation at 4° C., the beads were washed with lysis buffer, boiled for 10 minutes and the protein supernatant run in a 4-20% SDS-PAGE. The presence of co-immunoprecipitated peptide was detected by the Typhoon 9400 variable mode imager.
Next, co-immunoprecipitation experiments were performed. The affinity of the TCR/CP, the TCR/2D-CP and TCR/2G-CP interactions were compared by performing a series of co-precipitation experiments using different concentrations of Rho-labeled CP, 2D-CP and 2G-CP peptides.

TCR = assay: Fluorescence microscopy: co-localization and fluorescence energy transfer with TCR on activated A2b T cells; type: binding, rat
Experimental: Activated A2b T cells (van Eden et al., 1988) (10^5 cells/sample) were incubated in 100 μl of PBS containing Para-formaldehyde 4% for 15 min on ice. The samples were then washed with cold PBS and centrifuged for 7 min at 1100 rpm. PBS containing BSA 1% was then added at room temperature to prevent non-specific binding. After 30 min FITC-labeled antibody against TCR was added at dilution of 1:100 and incubated for 2.5 hr. For co-localization of TCR with the peptide, Rhodamine 2D-CP was added at a final concentration of 1 μM (stock in DMSO) and incubated for 5 min. Sample were then washed once with PBS and loaded on a microscope slide.
The cells were then observed under a fluorescent confocal microscope. […] Fluorescence data was collected from 505-525 nm. […] Fluorescence data was collected from 560 nm and up.
Fluorescence energy transfer between the FITC (donor) and rhodamine (acceptor) was detected as an increase in FITC fluorescence in an area where the rhodamine probe was bleached. […] To verify that the increase in FITC fluorescence is not due to auto fluorescence, bleaching was performed using the 488 nm laser first and only then at 543 nm. […]
To confirm these co-localization results, the inventors performed fluorescence energy transfer experiments between Rhodamine 2D-CP and αTCR-FITC. […] To rule out auto-fluorescence as a source of increased signal in the […] range, two controls were used. […]

GLRILLLKV [2D-CP] (GL[dR]ILLL[dK]V-NH2; also: rhodamine label, position not given here) [CP diastereomer]
Inhibition of T-cell proliferation to PPD and to Mt176-90 (LNC from Mt primed rats; LNC, 72 hr, 3H-thymidine incorporation): inhibited T-cell proliferation to PPD and to Mt176-90 in a dose-dependent manner
Inhibition of T-cell proliferation compared with all-L CP (LNC from Mt primed rats; at lower concentrations, p<0.02 (FIG. 3B)): somewhat greater
Mean maximum AA score (Lewis rats; 100 μg peptide per rat at AA induction, maximum possible score 16): 6.6±0.7
Effect on adjuvant arthritis (clinical score and paw swelling) (Lewis rats; 100 μg peptide per rat with Mt at the time of AA induction): significantly milder arthritis
Further decrease in the AA score (Lewis rats; dose increased to 900 μg per rat): 25%
Improvement in paw swelling (Lewis rats; dose increased to 900 μg per rat, day 26): 50%
Co-precipitation with the TCR (rat TCR): can be co-precipitated with the TCR
Co-localization with the TCR on the T-cell membrane (TCR; rhodamine-labeled peptide 1 μM, αTCR-FITC, activated A2b T cells): co-localizes with the TCR
Fluorescence energy transfer between rhodamine peptide and αTCR-FITC after bleaching at 543 nm (TCR; rhodamine-labeled peptide, point bleach 6 sec): significant increase in the fluorescence of the αTCR-FITC
